Experimental data published in patent US6858217B2, “Stabilization of terpenoids in cosmetic compositions” (Unilever Home & Personal Care USA division of Conopco, Inc., priority 2002, dated 2005).

Tests used:
[1] = Storage stability of linalool in skin lotion, GC/HS; settings: for initial GC/HS: skin lotion with 1.0% fragrance (linalool 20%)
Excerpt: (§1) The stability of terpenoid components of typical fragrances was examined in skin care formulations containing 4-substituted resorcinol derivatives to determine the resorcinol's effectiveness toward preventing degradation and loss of terpenoid upon storage. Two terpenoid components, limonene and linalool, were formulated as part of a fragrance in standard skin care lotions containing BHT (a standard antioxidant), unsubstituted resorcinol, 4-ethyl resorcinol and 4-hexyl resorcinol. The stability of these fragrance components was measured using GC/HS analysis to determine the loss of each terpenoid molecule with time as stored under typical consumer product storage conditions storage (5-month storage at 40° C. and in the sun at Room Temperature [RT]). The loss of limonene and linalool in a standard formulation containing no “anti-oxidants” was directly compared to loss of these materials with both BHT, unsubstituted resorcinol and the 4-substituted resorcinol derivatives.
(§2) With reference to the data in the Tables below, GC/HS measurements were taken on an Agilent 6890 GC/5973 MS using a Gerstel MPS2 Headspace Sampler. The samples were incubated at 35° C. for one hour and then 2.50 mL of the headspace above the sample was injected onto a Agilent Technologies number 19091S-433, HP-5MS, 5% Phenyl Methyl Siloxane column which has a 30 m×0.25 mm ID with a 0.25 μm film thickness. The GC data is recorded as peak area count for the two fragrance components.
(§3) The formulations in the Table below were prepared in accordance with the method set forth in Example 1 hereinabove.

[2] = Storage stability of limonene in skin lotion, GC/HS; settings: for initial GC/HS: skin lotion with 1.0% fragrance (limonene 20%)
Excerpt: as §1, §2, §3

[3] = Overall stabilization of terpenoid fragrance components in skin lotion; format: physicochemical; settings: limonene and linalool in skin lotions, 5-month storage (sun RT, 40° C.)
Excerpt: In most cases, the “control” formulation without anti-oxidants or the control with the unsubstituted resorcinol lost twice as much limonene and/or linalool as those formulations containing the 4-substituted resorcinols.

[4] = 5-month storage in the sun at RT

Row | SMILES | 40° C. 5-months GC/HS ([1]; 5-month storage at 40° C.) [peak area count] | 40° C. % Loss ([1]; 5-month storage at 40° C.) [%] | Sun 5-months GC/HS [1, 4] [peak area count] | Sun % Loss [1, 4] [%] | initial GC/HS [1] [peak area count] | 40° C. 5-months GC/HS ([2]; 5-month storage at 40° C.) [peak area count] | 40° C. % Loss ([2]; 5-month storage at 40° C.) [%] | Sun 5-months GC/HS [2, 4] [peak area count] | Sun % Loss [2, 4] [%] | initial GC/HS [2] [peak area count] | stabilizing terpenoid molecules against degradation [3] | 40° C. % Stabilization ([1]; 5-month storage at 40° C.) [%] | Sun % Stabilization [1, 4] [%] | 40° C. % Stabilization ([2]; 5-month storage at 40° C.) [%] | Sun % Stabilization [2, 4] [%]
1 | CCCCCCc1ccc(O)cc1O [4-HexylResorcinol, 4-hexyl resorcinol] | 1466948 | 10.2 | 1666185 | 7.5 | 2222930 | 3381932 | 18.5 | 34662250 | 7.7 | 40778538 | – | – | – | – | –
2 | Oc1cccc(O)c1 [Resorcinol] | 4286137 | 29.6 | 3856563 | 36.7 | 6088780 | 19260141 | 57.6 | 25743642 | 43.4 | 45478209 | little to no stabilization | – | – | – | –
3 | Cc1cc(C(C)(C)C)c(O)c(C(C)(C)C)c1 [BHT Sample, BHT] | 4918953 | 28.2 | 4678449 | 31.4 | 6853529 | 26286287 | 31.7 | 32465677 | 15.3 | 38342803 | – | 29 | 16.5 | 35 | 48
4 | CCc1ccc(O)cc1O [4-EthylResorcinol, 4-ethyl resorcinol] | 2292953 | 30.2 | 2650924 | 19.4 | 3288967 | 46790409 | 12.9 | 54753996 | 0 | 54736538 | – | – | – | – | –
